In patent publication US9546129B2, “DTPA prodrugs, compositions thereof, and methods of using the same” (priority 2012, dated 2017):

Tests used:
[1] = Protonation constants by potentiometric titration; type: physicochemical; settings: 5 mM ligand in 0.15 M KCl
Protocol: The protonation constants for C2E2 were determined by preparing a 5 mM solution of free ligand in 0.15 M KCl. The constants were calculated from three replicates, with each experiment consisting of a titration with acid, followed by a titration with base. After each addition of titrant, a 30 second equilibration time passed before pH measurement with a Seven Easy pH meter and (Ag/AgCl reference) glass electrode (Metler Tolledo). At the end of the titrations, the presence of C2E2 was confirmed by HPLC-CAD. Evaluation of the titration curve for C2E2 (FIG. 31) identified 6 pKa values that correspond with the three tertiary amines and three carboxylic acids. The values were determined by refinement using […] software. The pKa values determined for C2E2 are consistent with DTPA analogues previously investigated for use as MRI contrast agents with two carboxylic acids are functionalized such as DTPA-BMA and DTPA-BBA (Rizkalla, E. N., et al., Inorganic Chemistry, 32, 582-586, (1993) and Geraldes C. F., et al., Journal of the Chemical Society-Dalton Transactions, 327-335 (1995)).

[2] = Body weights and clinical observations in the rat single dose decorporation study; type: in vivo, Sprague Dawley rat; settings: iv Ca-DTPA 14 mg/kg, ad libitum; for Mean body weight: in g (unit assumed)
From the text: Each rat was weighed at contamination (Day 0) and the terminal body weight (Day 7) was taken at necropsy.

[3] = comparison values; cited from earlier work
[4] = Stability study in water (pH and precipitation of solubility samples); type: physicochemical; settings: for Precipitation on storage (observation): room temperature, 4° C., −20° C.
Protocol: Method 2 was used to prepare the C2E2 for the dosing formulations. Specifically, Lots 050 and 005-2 were prepared using Method 2, whereas the Reference standard and MTD Lot were prepared using Method 1. For the dosing formulations, de-ionized water (DI water tap in room 18/19) was used with the C2E2 prepared using Method 2. The dosing formulations were compared with C2E2 formulations prepared using Milli-Q water. The pH of each sample was recorded and the values are listed below in Table 2.
In order to re-create the unusual solutions, 1-mL samples of C2E2 (Lots 005-2 and 050; MTD Lot; and Reference std) were made at concentrations of 100 mg/mL in Milli-Q water. A set of samples was stored at room temperature, in the refrigerator (4° C.), and in the −20° C. freezer. […] Storage at 4° C. exacerbates the precipitation of Lot 050. After 8 days, both the Reference Standard and Lot 050 have significant amounts of solid detected at 4° C. and room temperature and crystals have started to form. […] While not wishing to be bound to any particular theory, this is likely because more impurities increase the solubility.

[5] = Polymorph stability (DSC, competitive ripening, storage); type: physicochemical; settings: higher melting point, lower solubility
Protocol: Samples of C2E2 (˜5 mg) were crimped and evaluated by DSC over a range of 25° C. to 320° C. with a heating rate of 10.00° C./min. A sample was also cycled three times from 25 to 150° C. with a heating rate of 10° C./min and a cooling rate of 5° C./min. Both the MTD Lot and the Reference Standard show a melting point near 120° C. Lot 050 has a melting point of about 140° C.
50 mg each of Lot 050 and the Reference standard were combined in 500 μL of water and stirred at room temperature overnight. After stirring, the remaining solid was filtered from the liquid, allowed to dry and analyzed by DSC.

^241Am contaminated rats [6] = assay: Once vs twice daily dosing ^241Am decorporation study in rats; type: in vivo, Sprague Dawley rat; settings: Zn-DTPA 13.3 mg/kg intravenous daily x5, male rats, seven days after IM ^241Am
Protocol: The animal study was conducted according to a protocol approved by The University of North Carolina at Chapel Hill Institutional Animal Care and Use Committee. Sixteen male Sprague Dawley rats were contaminated with ^241Am(NO3)3 (0.25 μCi) by intramuscular injection (0.1 mL, 0.1 M HNO3) into the right hind leg, under isoflurane anesthesia. Immediately after injection, body weights were recorded (Day 0 weight) and animals placed in individual metabolic cages. The 16 rats were assigned to four groups; untreated control, 5 daily oral gavage doses of 600 mg/kg C2E2 once daily, 5 days of oral gavage treatment of 300 mg/kg C2E2 twice daily or 5 daily intravenous doses of Zn-DTPA solution (13.3 mg/kg) via a jugular vein catheter. The C2E2 was from Lot 050 obtained using Method 2. The C2E2 dosing solution utilized was a 10% w/w solution in water. […] Excreted urine and feces were collected at 2, 4, 8, 10, 12, 14, 18, 20 and 24 hours after the first dose and daily for the remainder of the study. The samples were transferred to 20 mL scintillation vials, weighed and placed in a gamma counter (Wizard2 2480, Perkin Elmer) for detection of ^241Am gamma activity. In addition, following necropsy, selected tissues were removed, weighed and placed in a gamma counter (Wizard2 2480, Perkin Elmer) for detection of ^241Am gamma activity. The total amount of ^241Am administered to the animals was determined by quantifying the 59.7 keV photons emitted by ^241Am in duplicate aliquots (100 μL) of the injection solution using a gamma counter (wizard series, Perkin-Elmer). A counting window from 40-80 keV and a 60-second counting time were used for acquisition and each reading was corrected for background at acquisition. All experimental tissues and samples were counted using the same gamma counter and protocol. For all the samples, ^241Am content was expressed as a percentage of the initial dose. The femur from the leg opposite to the injection site was scaled by a factor of 20 to estimate total skeletal ^241Am burden.

^241Am contaminated rats [7] = assay: C2E2 single dose ^241Am decorporation in rats (IM contamination); type: in vivo, Sprague Dawley rat; settings: DTPA 14 mg/kg IV, ad lib; single dose 24 h after IM ^241Am, 7 days, female rats
Protocol: This study was to assess the efficacy of a single oral gavage dose of C2E2 in ^241Am contaminated rats. A 200 μL aliquot was withdrawn from a stock solution of ^241Am nitrate (0.1 mCi in 5 mL 1 M HNO3), evaporated to dryness, dissolved in concentrated HNO3 (15 M, 5 mL) then evaporated to dryness and dissolved in dilute HNO3 (0.1 M, 8 mL) to form the injection solution. Groups of 4 female Sprague-Dawley rats were contaminated with 250 nCi of ^241Am nitrate by IM injection ([…]) then were administered single doses of C2E2 by gavage at 200, 600, or 1000 mg/kg under ad lib feeding conditions utilizing a 10% w/w solution in sterile water (dose volumes were 2, 6, and 10 mL/kg, for the 200, 600, and 1000 mg/kg doses, respectively). For the fasted component of the study, the animals were fasted 24 hours before treatment then for 2 hours post drug administration. Control groups with ad lib access to food and water were either untreated or administered an IV dose of the calcium salt of DTPA (Ca-DTPA) at 14 mg/kg (target dose volume of 0.7 mL/kg and concentration of 20 mg/mL). Treatment was administered 1 day after contamination. All animals were euthanized 7 days after contamination and the following tissues were collected: liver, both kidneys, both femurs as well as the ipsilateral and the contralateral hind leg muscle tissue and the pelt from the injection site. Urine and feces were collected from the time of contamination through euthanasia. Cage washings were also collected at the end of the study and considered part of total urine collection. Two aliquots (100 μL) of the injection solution were removed and ^241Am gamma activity was determined using radiomatic detection. The average of these standards is the injected dose used for all animals. All tissues and samples were counted in a similar manner. Americium content was expressed as a percentage of the injected dose. Overall recovery of radioactivity across all groups in this study was approximately 90%. […] The primary route by which both DTPA and C2E2 enhanced elimination of ^241Am occurred was by urinary clearance. […] Fecal clearance of ^241Am was not altered by feeding status, an observation that is consistent with the similar liver burden between the two groups at the end of the study. […] As with DTPA, enhanced decorporation by C2E2 occurred through enhanced urinary clearance.
Male and female Sprague Dawley rats (n=4/gender/dose) were administered single oral doses of diethylenetriaminepentaacetic acid diethyl ester (C2E2) by gavage 24 hours after intramuscular contamination with ^241Am(NO3)3 (250 nCi) under ad libitum and fasted conditions. Animals received single oral nominal doses of 200, 600, or 1000 mg/kg C2E2. Untreated animals and animals treated with an intravenous dose of Ca-DTPA ([…]) 24 hours after contamination served as controls; only ad libitum conditions were used for control animals. Total radionuclide decorporation and radionuclide tissue burden were evaluated seven days after contamination.
Male and female Sprague Dawley rats were contaminated with ^241Am(NO3)3 (0.25 μCi) by intramuscular injection (0.1 mL, 0.1 M HNO3) into the right hind leg, under isoflurane anesthesia. Immediately after injection, body weights were recorded (Day 0 weight) and animals were placed in individual metabolic cages.
Approximately eight hours after contamination—and 16 hours before test article administration—rats assigned to the Fasted groups had access to food restricted by removing the food chamber from their metabolic cages and collecting all loose chow from their housing chambers. Food chambers were replaced 1 hour after oral gavage treatment, restoring access to food. At all other times all animals had ad libitum access to food.
Male and female Sprague-Dawley rats assigned to test groups each received a single oral gavage dose of 0, 200, 600, or 1000 mg/kg of C2E2 utilizing a 10% w/w solution in water 24 hours after contamination. […]

## CCOC(=O)CN(CCN(CCN(CC(=O)O)CC(=O)O)CC(=O)O)CC(=O)O [C2E1]
[1]
  PKa2: 2.99 ± 0.05
  pKa1: 6.35
  pKa3: 1.72 ± 1.5
  pKa4: 1.18 ± 0.45
  pKa5: <1.5
  pKa6: <1.5

## O=C([O-])CN(CCN(CC(=O)[O-])CC(=O)[O-])CCN(CC(=O)[O-])CC(=O)[O-].[Ca+2].[Na+].[Na+].[Na+] [Ca-DTPA, reference compound]
[2]; Female
  Mean Percentage Body Weight Change: −0.1 ± 1.9%
[2]; Male
  Mean Percentage Body Weight Change: 4.5 ± 6.1%
[2]; female rats, Day 0
  Mean body weight: 273.6 ± 7.7
[2]; female rats, Day 7 (terminal)
  Mean body weight: 273.3 ± 11.2
[2]; male rats, Day 0
  Mean body weight: 301.0 ± 4.0
[2]; male rats, Day 7 (terminal)
  Mean body weight: 314.6 ± 20.4

## O=C(O)CN(CCN(CC(=O)O)CC(=O)O)CC(=O)O [EDTA]
[3]
  Stability of the gadolinium complex, log K: 17.0

## CCOC(=O)CN(CCN(CCN(CC(=O)O)CC(=O)OCC)CC(=O)O)CC(=O)O [Lot 005-2, 6,9-bis(carboxymethyl)-3-(2-ethoxy-2-oxoethyl)-11-oxo-12-oxa-3,6,9-triazatetradecan-1-oic acid]
[4]; 100 mg/mL
  pH of formulations prepared using Milli-Q water: 2.54
[4]; 100 mg/mL in Milli-Q water
  Precipitation on storage (observation): do not come out of solution

## CCOC(=O)CN(CCN(CCN(CC(=O)O)CC(=O)OCC)CC(=O)O)CC(=O)O [Lot 050, 6,9-bis(carboxymethyl)-3-(2-ethoxy-2-oxoethyl)-11-oxo-12-oxa-3,6,9-triazatetradecan-1-oic acid]
[4]; 20 mg/mL
  pH of formulations prepared using de-ionized water: 3.04
[4]; 60 mg/mL
  pH of formulations prepared using de-ionized water: 2.93
[4]; 100 mg/mL
  pH of formulations prepared using Milli-Q water: 2.60
  pH of formulations prepared using de-ionized water: 2.93
[4]; 100 mg/mL in Milli-Q water
  Precipitation on storage (observation): begins to come out of solution after three days
[5]
  Relative stability of polymorph: most stable

## CCOC(=O)CN(CCN(CCN(CC(=O)O)CC(=O)OCC)CC(=O)O)CC(=O)O [MTD Lot, 6,9-bis(carboxymethyl)-3-(2-ethoxy-2-oxoethyl)-11-oxo-12-oxa-3,6,9-triazatetradecan-1-oic acid]
[4]; 100 mg/mL
  pH of formulations prepared using Milli-Q water: 2.35
[4]; 100 mg/mL in Milli-Q water
  Precipitation on storage (observation): do not come out of solution

## CCOC(=O)CN(CCN(CCN(CC(=O)O)CC(=O)OCC)CC(=O)O)CC(=O)O [Reference Standard, 6,9-bis(carboxymethyl)-3-(2-ethoxy-2-oxoethyl)-11-oxo-12-oxa-3,6,9-triazatetradecan-1-oic acid]
[4]; 100 mg/mL in Milli-Q water, regardless of storage temperature
  Time at which material starts to precipitate: ≤ 24 h
[4]; 100 mg/mL, listed as Purified C2E2 (Reference std)
  pH of formulations prepared using Milli-Q water: 2.43

## O=C([O-])CN(CCN(CC(=O)[O-])CC(=O)[O-])CCN(CC(=O)[O-])CC(=O)[O-].[Na+].[Na+].[Na+].[Zn+2] [i.v. Control, reference compound]
^241Am contaminated rats [6]
  Total Decorporation: 54.0 ± 3.9 % of injected dose

## diethylenetriamine pentaacetic acid [DTPA]
^241Am contaminated rats [7]
  Cage Wash ^241Am: 3.6 ± 0.8%
  Feces ^241Am: 10.3 ± 1.7%
  Liver burden: 12.3 ± 1.2 % injected
  Total Decorporation: 36.1 ± 4.6 % injected
  Urine ^241Am: 22.1 ± 2.6%
[3]
  Stability of the gadolinium complex, log K: 22.5
